Laboratory results reported in US8859574B2 (IRM LLC, priority 2008, dated 2014).

Each compound was assayed against T1, IGF-1R Ba/F3 (Homo sapiens, UniProt P08069) (assay: Ba/F3 Cell Viability Inhibition Assay (IGF-1R Ba/F3)). Settings: Tel-TK transformed Ba/F3 cells, 48 hours, Britelite luminescence.
T1 construct: fused on or other part: TEL- (or BCR-) IGF-1R in Ba/F3: the kinase part holds the site
Type: cell-based, murine
Outline: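 IL-3-independent murine Ba/F3 cells transformed with a TEL/BCR-fused IGF-1R kinase were seeded at 3750 cells/well and exposed to serially diluted compound for 48 h at 37 °C. Viability was read by Britelite luminescence. IC50 is the concentration giving 50% of DMSO-control viability, from a logistic fit.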

T1 sequence (P08069 999-1274 limits assumed): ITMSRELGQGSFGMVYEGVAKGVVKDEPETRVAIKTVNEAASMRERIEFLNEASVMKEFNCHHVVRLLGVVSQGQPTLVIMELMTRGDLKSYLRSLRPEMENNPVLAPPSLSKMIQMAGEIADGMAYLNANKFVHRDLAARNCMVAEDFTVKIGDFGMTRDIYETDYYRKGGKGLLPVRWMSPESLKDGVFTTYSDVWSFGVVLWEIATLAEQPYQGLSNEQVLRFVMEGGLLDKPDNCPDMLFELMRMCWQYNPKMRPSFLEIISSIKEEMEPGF

In order of falling IC50:
1. Cc1cc(Nc2nc(Nc3cc(C4CCN(CC(O)C(F)(F)F)CC4)c(F)cc3C)ncc2Cl)n[nH]1 (stereo not shown) [Compound 31, 3-(4-(5-(5-chloro-4-(5-methyl-1H-pyrazol-3-ylamino)pyrimidin-2-ylamino)-2-fluoro-4-methylphenyl)piperidin-1-yl)-1,1,1-trifluoropropan-2-ol]  6470 nM
2. Cc1cc(Nc2nc(Nc3cc(C)c(C4CCN(C)CC4)cc3OC(C)C)ncc2C)n[nH]1 [Compound 5, N2-(2-isopropoxy-5-methyl-4-(1-methylpiperidin-4-yl)phenyl)-5-methyl-N4-(5-methyl-1H-pyrazol-3-yl)pyrimidine-2,4-diamine]  805 nM
3. CCOC(=O)N1CCC(c2cc(C)c(Nc3ncc(Cl)c(Nc4cc(C)[nH]n4)n3)cc2Cl)CC1 [Compound 67, ethyl 4-(2-chloro-4-(5-chloro-4-(5-methyl-1H-pyrazol-3-ylamino)pyrimidin-2-ylamino)-5-methylphenyl)piperidine-1-carboxylate]  182 nM
4. Cc1cc(Nc2ncc(Cl)c(Nc3cc(C4CC4)[nH]n3)n2)c(F)cc1C1CCNCC1 [Compound 17, 5-chloro-N4-(5-cyclopropyl-1H-pyrazol-3-yl)-N2-(2-fluoro-5-methyl-4-(piperidin-4-yl)phenyl)pyrimidine-2,4-diamine]  160 nM
5. Cc1cc(Nc2nc(Nc3cc(C)c(C4CCN(C(=O)CCCN5CCCC5)CC4)cc3C)ncc2Cl)n[nH]1 [Compound 227, 1-(4-(4-(5-chloro-4-(5-methyl-1H-pyrazol-3-ylamino)pyrimidin-2-ylamino)-2,5-dimethylphenyl)piperidin-1-yl)-4-(pyrrolidin-1-yl)butan-1-one]  123 nM
6. CNCC(=O)N1CCC(c2cc(F)c(Nc3ncc(Cl)c(Nc4cc(C)[nH]n4)n3)cc2C)CC1 [Compound 80, 1-(4-(4-(5-chloro-4-(5-methyl-1H-pyrazol-3-ylamino)pyrimidin-2-ylamino)-5-fluoro-2-methylphenyl)piperidin-1-yl)-2-(methylamino)ethanone]  103 nM
7. CCN1CCC(c2cc(F)c(Nc3ncc(Cl)c(Nc4cc(C)[nH]n4)n3)cc2C(F)(F)F)CC1 [Compound 240, 5-chloro-N2-(4-(1-ethylpiperidin-4-yl)-2-fluoro-5-(trifluoromethyl)phenyl)-N4-(5-methyl-1H-pyrazol-3-yl)pyrimidine-2,4-diamine]  102 nM
8. CNC1(C(=O)N2CCC(c3cc(F)c(Nc4ncc(Cl)c(Nc5cc(C)[nH]n5)n4)cc3C)CC2)CCC1 [Compound 177, (4-(4-(5-chloro-4-(5-methyl-1H-pyrazol-3-ylamino)pyrimidin-2-ylamino)-5-fluoro-2-methylphenyl)piperidin-1-yl)(1-(methylamino)cyclobutyl)methanone]  80 nM
9. Cc1cc(Nc2nc(Nc3cc(C)c(C4CCN(S(=O)(=O)c5cccnc5)CC4)cc3F)ncc2Cl)n[nH]1 [Compound 65, 5-chloro-N2-(2-fluoro-5-methyl-4-(1-(pyridin-3-ylsulfonyl)piperidin-4-yl)phenyl)-N4-(5-methyl-1H-pyrazol-3-yl)pyrimidine-2,4-diamine]  76 nM
10. Cc1cc(Nc2nc(Nc3cc(C)c(C4CCN(C5CCN(C(=O)OC(C)(C)C)C5)CC4)cc3F)ncc2Cl)n[nH]1 (stereo not shown) [Compound 291, tert-butyl 3-(4-(4-(5-chloro-4-(5-methyl-1H-pyrazol-3-ylamino)pyrimidin-2-ylamino)-5-fluoro-2-methylphenyl)piperidin-1-yl)pyrrolidine-1-carboxylate]  67 nM
11. Cc1cc(Nc2nc(Nc3cc(C)c(C4CCCN(C[C@H](O)C(F)(F)F)C4)cc3C)ncc2Cl)n[nH]1 (stereo partly drawn) [Compound 201, (2S)-3-(3-(4-(5-chloro-4-(5-methyl-1H-pyrazol-3-ylamino)pyrimidin-2-ylamino)-2,5-dimethylphenyl)piperidin-1-yl)-1,1,1-trifluoropropan-2-ol]  46 nM
12. Cc1cc(Nc2nc(Nc3cc(C)c(C4CCN(CCC(=O)N5CCCC5)CC4)cc3C)ncc2Cl)n[nH]1 [Compound 238, 3-(4-(4-(5-chloro-4-(5-methyl-1H-pyrazol-3-ylamino)pyrimidin-2-ylamino)-2,5-dimethylphenyl)piperidin-1-yl)-1-(pyrrolidin-1-yl)propan-1-one]  39 nM
13. Cc1cc(Nc2nc(Nc3cc(C)c(C4CCN(CCS(=O)(=O)N(C)C)CC4)cc3F)ncc2Cl)n[nH]1 [Compound 58, 2-(4-(4-(5-chloro-4-(5-methyl-1H-pyrazol-3-ylamino)pyrimidin-2-ylamino)-5-fluoro-2-methylphenyl)piperidin-1-yl)-N,N-dimethylethanesulfonamide]  36 nM
14. Cc1cc(Nc2nc(Nc3cc(C)c(C4CCN(Cc5cnccn5)CC4)cc3F)ncc2Cl)n[nH]1 [Compound 315, 5-chloro-N2-(2-fluoro-5-methyl-4-(1-(pyrazin-2-ylmethyl)piperidin-4-yl)phenyl)-N4-(5-methyl-1H-pyrazol-3-yl)pyrimidine-2,4-diamine]  36 nM
15. Cc1cc(Nc2nc(Nc3cc(C)c(C4CCN([C@H]5CCN(S(C)(=O)=O)C5)CC4)cc3F)ncc2Cl)n[nH]1 [Compound 313, (S)-5-chloro-N2-(2-fluoro-5-methyl-4-(1-(1-(methylsulfonyl)pyrrolidin-3-yl)piperidin-4-yl)phenyl)-N4-(5-methyl-1H-pyrazol-3-yl)pyrimidine-2,4-diamine]  30 nM
16. Cc1cc(Nc2nc(Nc3cc(C)c(C4CCN([C@@H]5CCN(S(C)(=O)=O)C5)CC4)cc3F)ncc2Cl)n[nH]1 [Compound 312, (R)-5-chloro-N2-(2-fluoro-5-methyl-4-(1-(1-(methylsulfonyl)pyrrolidin-3-yl)piperidin-4-yl)phenyl)-N4-(5-methyl-1H-pyrazol-3-yl)pyrimidine-2,4-diamine]  25 nM
17. Cc1cc(Nc2nc(Nc3cc(C)c(C4CCN(C5CC5)CC4)cc3C)ncc2Cl)n[nH]1 [Compound 250, 5-chloro-N2-(4-(1-cyclopropylpiperidin-4-yl)-2,5-dimethylphenyl)-N4-(5-methyl-1H-pyrazol-3-yl)pyrimidine-2,4-diamine]  25 nM
18. CNC(=O)C(C)N1CCC(c2cc(F)c(Nc3ncc(Cl)c(Nc4cc(C)[nH]n4)n3)cc2C)CC1 (stereo not shown) [Compound 50, 2-(4-(4-(5-chloro-4-(5-methyl-1H-pyrazol-3-ylamino)pyrimidin-2-ylamino)-5-fluoro-2-methylphenyl)piperidin-1-yl)-N-methylpropanamide]  22 nM
19. CCc1cc(Nc2nc(Nc3cc(C)c(C4CCN(C5CS(=O)(=O)C5)CC4)cc3F)ncc2Cl)n[nH]1 [Compound 264, 5-Chloro-N2-{4-[1-(1,1-dioxo-1λ6-thietan-3-yl)-piperidin-4-yl]-2-fluoro-5-methyl-phenyl}-N4-(5-ethyl-1H-pyrazol-3-yl)-pyrimidine-2,4-diamine]  21 nM
20. Cc1cc(Nc2nc(Nc3cc(C)c(C4CCN(C5CCS(=O)(=O)C5)CC4)cc3F)ncc2Cl)n[nH]1 (stereo not shown) [Compound 145, 5-chloro-N^2-(2-fluoro-5-methyl-4-(1-(tetrahydro-1,1-dioxido-3-thienyl)piperidin-4-yl)phenyl)-N^4-(5-methyl-1H-pyrazol-3-yl)pyrimidine-2,4-diamine]  18 nM
21. Cc1cc(Nc2nc(Nc3cc(C)c(C4CCN(C5CCC6(CC5)OCCO6)CC4)cc3F)ncc2Cl)n[nH]1 [Compound 283, N2-(4-(1-(1,4-dioxaspiro[4.5]decan-8-yl)piperidin-4-yl)-2-fluoro-5-methylphenyl)-5-chloro-N4-(5-methyl-1H-pyrazol-3-yl)pyrimidine-2,4-diamine]  16 nM
22. Cc1cc(Nc2nc(Nc3cc(C)c(C4CCCCN4)cc3C)ncc2Cl)n[nH]1 (stereo not shown) [Compound 14, 5-chloro-N2-(2,5-dimethyl-4-(piperidin-2-yl)phenyl)-N4-(5-methyl-1H-pyrazol-3-yl)pyrimidine-2,4-diamine]  16 nM
23. CCOC(=O)N1CCC(c2cc(C)c(Nc3ncc(Cl)c(Nc4cc(C)[nH]n4)n3)cc2C)CC1 [Compound 162, ethyl 4-(4-(5-chloro-4-(5-methyl-1H-pyrazol-3-ylamino)pyrimidin-2-ylamino)-2,5-dimethylphenyl)piperidine-1-carboxylate]  13 nM
24. Cc1cc(C2CCN(C(=O)CN(C)C)CC2)c(C)cc1Nc1ncc(Cl)c(Nc2cc(C3CC3)[nH]n2)n1 [Compound 186, 1-(4-(4-(5-chloro-4-(5-cyclopropyl-1H-pyrazol-3-ylamino)pyrimidin-2-ylamino)-2,5-dimethylphenyl)piperidin-1-yl)-2-(dimethylamino)ethanone]  12 nM
25. CNC(C)(C)C(=O)N1CCC(c2cc(C)c(Nc3ncc(Cl)c(Nc4cc(C)[nH]n4)n3)cc2Cl)CC1 [Compound 88, 1-(4-(2-chloro-4-(5-chloro-4-(5-methyl-1H-pyrazol-3-ylamino)pyrimidin-2-ylamino)-5-methylphenyl)piperidin-1-yl)-2-methyl-2-(methylamino)propan-1-one]  7 nM
26. Cc1cc(Nc2nc(Nc3cc(C)c(C4CCN(Cc5ccccn5)CC4)cc3C)ncc2Cl)n[nH]1 [Compound 307, 5-chloro-N2-(2,5-dimethyl-4-(1-(pyridin-2-ylmethyl)piperidin-4-yl)phenyl)-N4-(5-methyl-1H-pyrazol-3-yl)pyrimidine-2,4-diamine]  7 nM
27. CCC(C(=O)NC)N1CCC(c2cc(C)c(Nc3ncc(Cl)c(Nc4cc(C)[nH]n4)n3)cc2C)CC1 (stereo not shown) [Compound 189, 2-(4-(4-(5-chloro-4-(5-methyl-1H-pyrazol-3-ylamino)pyrimidin-2-ylamino)-2,5-dimethylphenyl)piperidin-1-yl)-N-methylbutanamide]  7 nM
28. Cc1cc(Nc2nc(Nc3cc(Cl)c(C4CCN(C5CCS(=O)(=O)C5)CC4)cc3C)ncc2Cl)n[nH]1 (stereo not shown) [Compound 144, 5-chloro-N^2-(2-methyl-5-chloro-4-(1-(tetrahydro-1,1-dioxido-3-thienyl)piperidin-4-yl)phenyl)-N^4-(5-methyl-1H-pyrazol-3-yl)pyrimidine-2,4-diamine]  7 nM
